Assay results from patent EP1007024B1 (Pfizer Products Inc., priority 1997, dated 1999).
Counter-ions that a name gives are not always drawn. Like-named read-outs stand apart in the source and are kept apart here.

Tests used:
[1] = Screening test for inhibition of precipitation or gelation of sertraline lactate when chloride is added; assay type: physicochemical
Experimental: Sodium chloride was then added (as a concentrated solution) and the result observed. An excipient was considered beneficial if the solution remained clear and fluid. The more chloride that could be added to an excipient solution with the solution remaining dear, the more beneficial was the excipient.

[2] = Pharmacokinetics of 200 mg sertraline delivered to various portions of the gastrointestinal tract (four-way crossover); assay type: in vivo; details: human, plasma
Experimental: Dosing was via (1) oral tablets, or (2) infusion of a solution through a nasoenteric tube into the stomach, duodenum, or ileocecal region of the small intestine, or (3) infusion into the transverse colon via anal intubation.
The infusions were administered as a 2 mg/ml solution at a rate of 20 ml/min for 5 min.
Analysis was carried out by capillary gas chromatography with electron capture detection.

[3] = Side effects by visual analogue scales and PK/PD plots (Study I, Study II); assay type: in vivo, human
Experimental: (§1) In a subset of a larger double-blind, randomized, placebo-controlled parallel group study, healthy male human subjects were divided into two groups (Study 1). […] The tablets were administered with 50 ml water. Group B received two placebo tablets. All subjects were dosed after an overnight fast.
Prior to dosing and each blood sampling time, each subject filled out a questionnaire, which consisted of a series of "Visual Analogue Scales" in which the subject was required to rate, on a scale of 0-10, the severity of certain potential side effects. The subjects were instructed that "0" indicated an absent effect and "10" indicated the worst possible effect The subjects were instructed to interpolate between 0 and 10 for moderate side effects.
A total of 30 subjects completed Study I: 15 each in Groups A and B. For each side effect evaluated at 30 time points, a total of 900 individual visual-analogue-scale evaluations were obtained.

[4] = male, human, in vivo
Experimental: as §1
(§2) Analysis was carried out by capillary gas chromatography with electron capture detection. […] Tmax is the time at which Cmax is achieved.
(§3) The data from these four subjects were not included in the pharmacokinetic averages.

[5] = oral administration of known immediate-release dosage forms, plasma; cited from earlier work
clinical = details: human, in vivo, 200 mg
Experimental: as §1, §2, §3

physchem [6] = details: water, Sertraline Lactate Solubility, in water, excipient None
[7] = Screening of solubilizers for sertraline lactate solubility with and without chloride; details: water
physchem [8] = details: water
[9] = Group A, Ileocecal Infusion of 2 mg/ml solution
[10] = Group A, Stomach Infusion of 2 mg/ml solution
[11] = Group B, Colonic Infusion of 2 mg/ml solution
[12] = Group B, Duodenal Infusion of 2 mg/ml solution

In the case of `O=C1O[C@H]([C@@H](O)CO)C(O)=C1O` [Ascorbic acid], the “Observation After NaCI Addition” value ([1]; sertraline lactate with excipient, NaCl 100 mM) is reported as “predpitate”.
In the case of `N[C@@H](Cc1c[nH]cn1)C(=O)O` [Histidine], the “Observation After NaCI Addition” value ([1]; sertraline lactate with excipient, NaCl 150 mM) is reported as “slight precipitate”.
Compound `CN[C@H]1CC[C@@H](c2ccc(Cl)c(Cl)c2)c2ccccc21` [sertraline] has a Cmax [2, 9] of 27.3 ng/mL, a Tmax [2, 9] of 5 h and a Cmax [2, 10] of 35.6 ng/mL. For the same compound, the Tmax [2, 10] was 7 h, the Cmax ([2]; Group B, Colonic Infusion (transverse colon) of 2 mg/ml solution) was 10.9 ng/mL and the AUC [2, 11] was 179 ng·h/mL. The Tmax [2, 11] was 4.4 h, the AUC [2, 12] was 1270 ng·h/mL and the Cmax [2, 12] was 48.8 ng/mL. It also gave a Tmax [2, 12] of 3.7 h, a Cmax ([2]; po, Group A, Oral Tablet (two 100 mg immediate release tablets), group average) of 39.9 ng/mL and a Tmax ([2]; po, Group A, Oral Tablet, group average) of 7 h. It also gave an AUC ([2]; po, Group B, Oral Tablet) of 1150 ng·h/mL, a Tmax ([2]; po, Group B, Oral Tablet) of 6.7 h and a Cmax ([2]; po, Group B, Oral Tablet (two 100 mg immediate release tablets)) of 44.7 ng/mL. For the same compound, the “side effect score for diarrhea vs plasma sertraline concentration curve” value ([3]; Study 1, 200 mg bolus dose) was “clockwise hysteresis”, the “PK/PD plot, average visual analogue score for nausea vs plasma sertraline concentration” value ([3]; Study I, Group A, 200 mg bolus dose, Figure 1) was “clockwise hysteresis” and the “subjects with emesis (regurgitation)” value ([3]; Study II, 200 mg dose group) was “Four and four”. The “average Tmax” value [4] was 6 h, the Tmax [5] was 6 to 7 h and the AUC (clinical) was 1740 ng·h/mL. It also gave a Cmax (clinical; male) of about 70 ng/mL.
With `CN[C@H]1CC[C@@H](c2ccc(Cl)c(Cl)c2)c2ccccc21` [sertraline lactate] the “Observation After NaCI Addition” value ([1]; sertraline lactate in water alone (control), NaCl 38 mM) was “gel/precipitate”, the solubility (physchem [6]) was about 125 mg/mL and the solubility [7] was 125 mg/mL.
Compound `CN[C@H]1CC[C@@H](c2ccc(Cl)c(Cl)c2)c2ccccc21` [sertraline hydrochloride] has a solubility (physchem [8]) of 2.5 mg/mL.
